{
  "source": "patent US20240335483A1",
  "about": "“NEW METHOD TO TREAT AUTOIMMUNE DISEASES” (INSTITUT NATIONAL DE LA SANTÉ ET DE LA RECHERCHE MÉDICALE, priority 2021, published 2024)",
  "format_in_all_cases": "in vivo, mouse",
  "key": {"NOD mice": {"test_system": "NOD mice", "assay": "Spontaneous diabetes incidence", "description": "Female NOD, BALB/c, C57BL/6J, C57BL/6J camp−/− in different ages were used, bred and housed in specific pathogen-free conditions. Recombinant mouse CRAMP1-39 and scrambled (sc)CRAMP1-39 were produced under aseptic conditions and provided after endotoxin removal processing (Innovagen). Newborn NOD mice were treated by intra-colonic treatment between 10 and 21 days of age every 3 days with CRAMP or scCRAMP (10 μg in 10 μL/mouse/injection) or vehicle (PBS-1% H2O). For blocking TLR experiments, newborn NOD mice were treated between 7 and 14 days of age every 3 days with TLR2 inhibitor CU CTP22 (25 μg in 10 μL/mouse/injection) or TLR4 inhibitor TAK242 (25 μg in 10 μL/mouse/injection) or with TLR5 inhibitor TH1020 (20 μg in 10 μL/mouse/injection) or with vehicle (PBS 1% DMSO). All inhibitors are from Tocris. For modulating IFNα experiment, newborn NOD mice were treated between 7 and 14 days of age every 3 days with anti-IFNα receptor mAb (200 μg in 10 μL/mouse/injection) (BioXcell) or equivalent amount of isotype control (mouse IgGI) or gardiquimod (50 μg in 10 μL/mouse/injection) or vehicle (PBS-1% H2O). For CRAMP-expressing probiotic experiment, pregnant NOD mice were given CRAMP-expressing Lactococcus lactis or conventional L. lactis ([…] colony forming units (cfu) in 100 μL PBS/mice) by oral gavage one day before delivery. For cross-fostering experiments, NOD pups were adopted immediately at birth by recipient mice (C57BL/6, BALB/c, CRAMP-treated NOD mice or NOD mice), that delivered the same day and pups from the two litters were maintained in the same cage. All animal experimental protocols were approved by the ethic committee for animal experimentation (APAFIS #3535-2015092416202090).\nNOD mice were treated as described above with CRAMP or scCRAMP, anti-IFNαR mAb, gardiquimod or were born from CRAMP-expressing L. lactis treated NOD mice or were cross-fostered by CRAMP-treated NOD mice. […]\nDiabetes incidence was plotted according to the Kaplan-Meier method. […] All data were analyzed using GraphPad Prism v6 software."}, "Treg cells": {"test_system": "Treg cells", "assay": "Flow cytometry of regulatory T cells in tissues", "description": "(§1) Pancreata were perfused with a solution of collagenase P in HBSS-1% HEPES (0.75 mg.ml-1, Roche), then dissected free from surrounding tissues. Pancreata were digested at 37° C. for 8 min. Digestion was stopped by adding HBSS-10% FCS-1% EDTA followed by extensive washes. For flow cytometry analysis, islets were isolated on a discontinuous Ficoll® PM400 gradient (Sigma-Aldrich) and then isolated islets were handpicked to exclude contaminations from intrapancreatic lymph nodes. Cells were released from the islets by incubation at 37° C. for 6 min in non-enzymatic cell dissociation solution (Sigma-Aldrich). For RT-qPCR, to avoid potential contamination by exocrine tissue, islets were purified by handpicking in 3 consecutive baths of HBSS-10% FCS supplemented with 1% DNAse 1.\nImmune cells from the colon were isolated using the Lamina Propria Dissociation Kit from Miltenyi (#130-097-410), combined with gentleMACS™ Octo dissociator with heaters (#130-096-427) according to the manufacturer's instructions.\n(§2) Single cell suspensions were prepared from various tissues, surface staining was performed after FcγRII/III blocking (anti-CD16/CD32) for 5 min at 4° C. and were surface stained for 30 min at 4° C. Staining buffer was PBS containing 2% FCS, 0.5% EDTA and 0.1% sodium azide. […] Stained cells were analyzed on a Becton Dickinson Fortessa flow cytometer. Data were analyzed with Flowjo™ v10 software."}, "microbiota": {"test_system": "microbiota", "assay": "16S rDNA gene sequencing of microbiota composition", "conditions": "5 weeks of age, after intracolonic CRAMP in newborn NOD mice", "description": "Stools were recovered from 5 mice from 5 independent cages per group, and were stored at −80° C. in DNA/RNA Shield™ (Zymo Research, #R1100-250) immediately after emission before shipment to Zymo Research (ZymoBIOMICS Services). For CRAMP treatment experiments, pups from different litters were randomly mixed and then separate before treatment with CRAMP or scCRAMP. The samples were processed and analyzed with the ZymoBIOMICS® Targeted Sequencing Service for Microbiome Analysis (Zymo Research, Irvine, CA). DNA Extraction: One of three different DNA extraction kits was used depending on the sample type and sample volume. In most cases, the ZymoBIOMICS® DNA Miniprep Kit (Zymo Research, Irvine, CA) was used. For low biomass samples, such as skin swabs, the ZymoBIOMICS® DNA Microprep Kit (Zymo Research, Irvine, CA) was used as it permits for a lower elution volume, resulting in more concentrated DNA samples. For a large sample volume, the ZymoBIOMICS@-96 MagBead DNA Kit (Zymo Research, Irvine, CA) was used to extract DNA using an automated platform. Targeted Library Preparation: Bacterial 16S ribosomal RNA gene targeted sequencing was performed using the Quick-16S™ NGS Library Prep Kit (Zymo Research, Irvine, CA). The bacterial 16S primers amplified the V1-V2 or V3-V4 region of the 16S rRNA gene. These primers have been custom-designed by Zymo Research to provide the best coverage of the 16S gene while maintaining high sensitivity. Fungal ITS gene targeted sequencing was performed using the Quick-16S™ NGS Library Prep Kit with custom ITS2 primers substituted for 16S primers. […] The final PCR products were quantified with qPCR fluorescence readings and pooled together based on equal molarity. The final pooled library was cleaned up with the Select-a-Size DNA Clean & Concentrator™ (Zymo Research, Irvine, CA), then quantified with TapeStation®(Agilent Technologies, Santa Clara, CA) and Qubit® (Thermo Fisher Scientific, Waltham, […]). […] Bioinformatics Analysis: Unique amplicon sequences were inferred from raw reads using the DADA2 pipeline. […]"}, "[1]": {"test_system": "IGRP206-214-specific CD8+ T cells", "assay": "Flow cytometry of diabetogenic IGRP206-214-specific CD8+ T cells", "conditions": "12-week-old NOD mice after intracolonic CRAMP as newborns", "description": "as §1\nas §2, with “azide. For detection of the subsets of conventional dendritic cells, cells suspension were surface stained with anti-CD45, -TCRβ, -CD19-CD11c, -F4/80, -CD103, -CD11b.” for “azide.”"}, "type I IFN signature": {"test_system": "type I IFN signature", "assay": "Colonic type I IFN signature (RNAseq, RT-qPCR)", "description": "(§3) Total RNA was isolated using the Nucleospin RNA XS kit (Macherey-Nagel) from a minimum of 100 handpicked islets per mouse or using Nucleospin RNA kit (Macherey-Nagel) for colon tissue. RNA was reverse transcribed to synthesized cDNA using the high capacity cDNA reverse transcription kit (ThermoFisher) and measurements were performed by qPCR using Power SYBR® Green (ThermoFisher) on a 7900HT Fast System (Applied Biosystems). Resulting levels of fluorescence were submitted to relative quantification by normalization against a housekeeping gene (GAPDH) and expressed as 2-(ΔCT) values.\nColon tissue was recovered from 5 mice from 5 independent cages per group. Total RNA were isolated from colon using the RNeasy Kit (QIAGEN) including a DNAse treatment step. RNA quality was assessed using RNA Screen Tape 6000 Pico LabChips with the Tape Station (Agilent Technologies) and RNA concentration was measured by spectrophometry using the Xpose (Trinean). RNAseq libraries were prepared starting from 1 μg of total RNA using the TruSeq Stranded mRNA LT Sample Prep Kit (Illumina) as recommended by the manufacturer. […] A mean of 23 million of paired-end reads was produced per library sample (between 21 to 25 million of passing filter reads). The generated data were analyzed using the Ingenuity Pathway Analysis software (Qiagen)."}, "TLR2 ligands": {"test_system": "TLR2 ligands", "assay": "TLR2 ligand levels in colon extract (HEK-blue TLR reporter cells)", "conditions": "NOD mice, intracolonic CRAMP treatment", "description": "(§4) Colons from 2-week-old mice were recovered in 100 μL PBS, cut in some pieces and homogenized by vortexing. Cell-free supernatant was recovered after centrifugation at 10 000 g for 10 min. A 100-fold dilution was used to measure TLR2 and TLR4 ligand levels in the supernatants using HEK-blue™ TLR reporter cells ([…], #hkb-mtlr2 and #hkb-mtlr4) according to the manufacturer protocol."}, "TLR4 ligands": {"test_system": "TLR4 ligands", "assay": "TLR4 ligand levels in colon extract (HEK-blue TLR reporter cells)", "conditions": "NOD mice, intracolonic CRAMP treatment", "description": "as §4"}, "[2]": {"test_system": "inflammatory and regulatory cytokines in colon", "assay": "Cytokine expression in colon (RT-qPCR)", "description": "as §3"}},
  "note": "Entries after “also recorded” stand apart in the source; their conditions may differ.",
  "data": [
    {"compound": "CCNCc1nc2c(N)nc3ccccc3c2n1CC(C)(C)O", "note": "[gardiquimod, reference compound]", "values": [
      {"measurement": "diabetes incidence", "setting": "NOD mice; gardiquimod, intracolonic, newborn female NOD mice", "result": "increased"},
      {"measurement": "frequency of pancreatic LAP+ Treg cells", "setting": "Treg cells; male NOD mice, intracolonic gardiquimod at 10 days of age, pancreatic islets at 12 weeks of age", "result": "decreased the frequency of pancreatic LAP+ Treg cells in the adult NOD mice"}
    ]},
    {"compound": "CRAMP", "values": [
      {"measurement": "development (incidence) of diabetes", "setting": "NOD mice; female NOD mice, intracolonic CRAMP every 3 days from 10 to 21 days of age, control scCRAMP, FIG. 1A", "result": "significantly prevented the development of diabetes"},
      {"measurement": "incidence of diabetes in adopted NOD mice", "setting": "NOD mice; newborn NOD mice from untreated dams cross-fostered to NOD dams treated by CRAMP between 10 and 21 days of age, FIG. 1", "result": "decrease of diabetes development; also recorded: decreased incidence of diabetes in the adopted NOD mice"},
      {"measurement": "abundance of the genera Lactobacillus and Bifidobacterium", "setting": "microbiota", "result": "increased abundance"},
      {"measurement": "abundance of the genus Alistipes", "setting": "microbiota", "result": "decreased abundance"},
      {"measurement": "microbiota composition", "setting": "microbiota; control scCRAMP", "result": "changed microbiota composition in the adult mice"},
      {"measurement": "frequency and absolute number of Treg cells", "setting": "Treg cells; prediabetic 12-week-old NOD mice after intracolonic CRAMP as newborns, pancreas, colon, PLN, MLN, spleen", "result": "increased the frequency, but not the absolute number, of Treg cells in the pancreas and colon of adult NOD mice"},
      {"measurement": "frequency and absolute number of IGRP206-214-specific CD8+ effector T cells", "setting": "[1]", "result": "decreased in the pancreas and PLN in the adult mice"},
      {"measurement": "type I IFN signature in the colon", "setting": "type I IFN signature; colonic CRAMP treatment of 10-day-old NOD mice", "result": "reduced"},
      {"measurement": "type I IFN signature in the newborns", "setting": "type I IFN signature; newborn NOD mice cross-fostered by NOD dams previously treated with CRAMP at 10 days of age", "result": "prevented the aberrant type I IFN signature in the newborns"},
      {"measurement": "level of TLR2 ligands in the colon", "setting": "TLR2 ligands", "result": "reduced the levels of TLR2 and TLR4 ligands in the colon"},
      {"measurement": "level of TLR4 ligands in the colon", "setting": "TLR4 ligands", "result": "reduced the levels of TLR2 and TLR4 ligands in the colon"},
      {"measurement": "cytokine profile in the colon", "setting": "[2]; CRAMP treatment of adult NOD mice", "result": "inefficient at changing the cytokine profile in the colon"},
      {"measurement": "expression of inflammatory cytokines in colon", "setting": "[2]; adult NOD colon after CRAMP treatment of newborn NOD mice", "result": "prevented the overexpression of inflammatory cytokines in the adult NOD colon"}
    ]}
  ]
}
